According to patent US6875760B2 (Novo Nordisk A/S, priority 1999, dated 2005):

Target: T1, human glucagon receptor (Homo sapiens, UniProt P47871)
T1 construct: expressed in transfected cells; host or cells: BHK (baby hamster kidney) cells
Assay: Glucagon Binding Assay (III)
Details: BHK cell membranes, WGA SPA beads, 125I-glucagon; read-out: Glu Bd Assay (III) IC50
Protocol: BHK (baby hamster kidney cell line) cells were transfected with the human glucagon receptor and a membrane preparation of the cells was prepared.
All steps in the membrane preparation were kept on ice or performed at 4° C. BHK cells were harvested and centrifuged. […] The pellet was resuspended in homogenisation buffer, homogenised 2×10 sec (Polytron) and additional homogenisation buffer was added. […] (Polytron).
The glucagon binding assay was carried out in opti plates (Polystyrene Microplates, Packard). […] Finally 50 μL WGA beads containing 1 mg beads were transferred to the well. The assay was incubated for 4 hours on a shaker and then settled for 8-48 hours. The opti plates were counted in a Topcounter. Non-specific binding was determined with 500 nM of glucagon.

T1 sequence (P47871 26-477): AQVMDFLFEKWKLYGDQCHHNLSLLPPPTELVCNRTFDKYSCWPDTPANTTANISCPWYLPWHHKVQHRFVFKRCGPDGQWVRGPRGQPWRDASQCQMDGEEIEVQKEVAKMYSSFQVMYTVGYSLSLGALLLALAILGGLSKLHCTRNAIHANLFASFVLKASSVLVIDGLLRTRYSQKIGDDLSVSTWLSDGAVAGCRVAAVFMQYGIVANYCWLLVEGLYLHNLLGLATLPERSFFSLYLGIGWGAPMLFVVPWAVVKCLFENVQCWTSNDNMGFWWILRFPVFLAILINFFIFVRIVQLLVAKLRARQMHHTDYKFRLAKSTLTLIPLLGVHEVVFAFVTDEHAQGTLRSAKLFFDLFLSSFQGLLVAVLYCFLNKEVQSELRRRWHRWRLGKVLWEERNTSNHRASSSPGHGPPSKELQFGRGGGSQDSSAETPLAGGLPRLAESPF

| SMILES | IC50 |
| --- | --- |
| CC1CCCC(N(Cc2ccc(C(=O)NCCC(=O)O)cc2)C(=O)Nc2ccc(Oc3ccccc3)cc2)C1 (centres unmarked) [Example 44, 3-{4-[1-(3-Methylcyclohexyl)-3-(4-phenoxyphenyl)ureidomethyl]benzoylamino}propionic acid] | 819 nM |
| CC1CCC(N(Cc2ccc(C(=O)NCCC(=O)O)cc2)C(=O)Nc2ccc(OCc3ccccc3)cc2)CC1 (centres unmarked) [Example 45, 3-{4-[3-(4-Benzyloxyphenyl)-1-(4-methylcyclohexyl)ureidomethyl]benzoylamino}propionic acid] | 1190 nM |
| CCc1ccc(NC(=O)N(CCc2ccc(Cl)c(Cl)c2)Cc2ccc(C(=O)NCCC(=O)O)cc2)cc1 [Example 46, 3-{4-[1-[2-(3,4-Dichlorophenyl)ethyl)-3-(4-ethylphenyl)ureidomethyl]benzoylamino}propionic acid] | 456 nM |
| O=C(O)CCNC(=O)c1ccc(CN(CCc2ccc(Cl)c(Cl)c2)C(=O)Nc2ccc(OCc3ccccc3)cc2)cc1 [Example 47, 3-{4-[3-(4-Benzyloxyphenyl)-1-[2-(3,4-dichlorophenyl)ethyl]ureidomethyl]benzoylamino}propionic acid] | 1100 nM |
| CC1CCCCC1N(Cc1ccc(C(=O)NCCC(=O)O)cc1)C(=O)Nc1ccc(Oc2ccccc2)cc1 (centres unmarked) [Example 48, 3-{4-[1-(2-Methylcyclohexyl)-3-(4-phenoxyphenyl)ureidomethyl]benzoylamino}propionic acid] | 1080 nM |
| CCCCOC(=O)c1ccc(NC(=O)N(Cc2ccc(C(=O)NCCC(=O)O)cc2)CC(C)c2ccccc2)cc1 (centres unmarked) [Example 49, 4-[3-[4-(2-Carboxyethylcarbamoyl)benzyl]-3-(2-phenylpropyl)ureido]benzoic acid butyl ester] | 1320 nM |
| CC(C)c1ccc(NC(=O)N(Cc2ccc(C(=O)NCCC(=O)O)cc2)CC(C)c2ccccc2)cc1 (centres unmarked) [Example 50, 3-{4-[3-(4-Isopropylphenyl)-1-(2-phenylpropyl)ureidomethyl]benzoylamino}propionic acid] | 564 nM |
| CCCCOC(=O)c1ccc(NC(=O)N(CCc2ccc(Cl)cc2)Cc2ccc(C(=O)NCCC(=O)O)cc2)cc1 [Example 51, 4-{3-[4-(2-Carboxyethylcarbamoyl)benzyl]-3-[2-(4-chlorophenyl)ethyl]ureido}benzoic acid butyl ester] | 721 nM |
| CC(C)c1ccc(NC(=O)N(CCc2ccc(Cl)cc2)Cc2ccc(C(=O)NCCC(=O)O)cc2)cc1 [Example 52, 3-{4-[1-[2-(4-Chlorophenyl)ethyl]-3-(4-isopropylphenyl)ureidomethyl]benzoylamino}propionic acid] | 383 nM |
| O=C(O)CCNC(=O)c1ccc(CN(CC(c2ccccc2)c2ccccc2)C(=O)Nc2ccc(Oc3ccccc3)cc2)cc1 [Example 53, 3-{4-[1-(2,2-Diphenylethyl)-3-(4-phenoxyphenyl)ureidomethyl]benzoylamino}propionic acid] | 505 nM |
| CCCCOC(=O)c1ccc(NC(=O)N(Cc2ccc(C(=O)NCCC(=O)O)cc2)CC(c2ccccc2)c2ccccc2)cc1 [Example 54, 4-[3-[4-(2-Carboxyethylcarbamoyl)benzyl]-3-(2,2-diphenylethyl)ureido]benzoic acid butyl ester] | 337 nM |
| CC(C)c1ccc(NC(=O)N(Cc2ccc(C(=O)NCCC(=O)O)cc2)CC(c2ccccc2)c2ccccc2)cc1 [Example 55, 3-{4-[1-(2,2-Diphenylethyl)-3-(4-isopropylphenyl)ureidomethyl]benzoylamino}propionic acid] | 1000 nM |
| CC(C)c1ccc(NC(=O)N(Cc2ccc(C(=O)NCCC(=O)O)cc2)C2CCC(C(C)(C)C)CC2)cc1 (centres unmarked) [Example 56, 3-{4-[1-(4-tert-Butylcyclohexyl)-3-(4-isopropylphenyl)ureidomethyl]benzoylamino}propionic acid] | 59 nM |
| CC(C)(C)C1CCC(N(Cc2ccc(C(=O)NCCC(=O)O)cc2)C(=O)Nc2ccc(Oc3ccccc3)cc2)CC1 (centres unmarked) [Example 57, 3-{4-[1-(4-tert-Butylcyclohexyl)-3-(4-phenoxyphenyl)ureidomethyl]benzoylamino}propionic acid] | 90 nM |
| CC(C)(C)C1CCC(N(Cc2ccc(C(=O)NCCC(=O)O)cc2)C(=O)Nc2ccc(SC(F)(F)F)cc2)CC1 (centres unmarked) [Example 58, 3-{4-[1-(4-tert-Butylcyclohexyl)-3-(4-trifluoromethylsulfanylphenyl)ureidomethyl]benzoylamino}propionic acid] | 139 nM |
| COc1ccc(NC(=O)N(Cc2ccc(C(=O)NCCC(=O)O)cc2)C2CCC(C(C)(C)C)CC2)cc1 (centres unmarked) [Example 59, 3-{4-[1-(4-tert-Butylcyclohexyl)-3-(4-methoxyphenyl)ureidomethyl]benzoylamino}propionic acid] | 3800 nM |

| SMILES | IC50 |
| --- | --- |
| CC(=O)c1ccc(NC(=O)N(Cc2ccc(C(=O)NCCC(=O)O)cc2)C2CCC(C(C)(C)C)CC2)cc1 (centres unmarked) [Example 60, 3-{4-[3-(4-Acetylphenyl)-1-(4-tert-butylcyclohexyl)ureidomethyl]benzoylamino}propionic acid] | 83 nM |
| CCCCOC(=O)c1ccc(NC(=O)N(Cc2ccc(C(=O)NCCC(=O)O)cc2)C2CCC(C(C)(C)C)CC2)cc1 (centres unmarked) [Example 61, 4-{3-(4-tert-Butylcyclohexyl)-3-[4-(2-carboxyethylcarbamoyl)benzyl]ureido}benzoic acid butyl ester] | 48 nM |
| CC(C)Cc1ccc(NC(=O)N(Cc2ccc(C(=O)NCCC(=O)O)cc2)C2CCC(C(C)(C)C)CC2)cc1 (centres unmarked) [Example 62, 3-{4-[1-(4-tert-Butylcyclohexyl)-3-(4-isobutylphenyl)ureidomethyl]benzoylamino}propionic acid] | 39 nM |
| CC(C)(C)C1CCC(N(Cc2ccc(C(=O)NCCC(=O)O)cc2)C(=O)Nc2ccc(C(F)(F)F)cc2)CC1 (centres unmarked) [Example 63, 3-{4-[1-(4-tert-Butylcyclohexyl)-3-(4-trifluoromethylphenyl)ureidomethyl]benzoylamino}propionic acid] | 645 nM |
| CC1C(N(Cc2ccc(C(=O)NCCC(=O)O)cc2)C(=O)Nc2ccc(OC(F)(F)F)cc2)CC2CC1C2(C)C (centres unmarked) [Example 65, 3-{4-[3-(4-Trifluoromethoxyphenyl)-1-(2,6,6-trimethylbicyclo[3.1.1]hept-3-yl)ureidomethyl]benzoylamino}propionic acid] | 183 nM |
| CC(C)c1ccc(NC(=O)N(Cc2ccc(C(=O)NCCC(=O)O)cc2)C2CC3CC(C2C)C3(C)C)cc1 (centres unmarked) [Example 66, 3-{4-[3-(4-Isopropylphenyl)-1-(2,6,6-trimethylbicyclo[3.1.1]hept-3-yl)ureidomethyl]benzoylamino}propionic acid] | 267 nM |
| CC(C)(C)C1CCC(N(Cc2ccc(C(=O)NCCC(=O)O)cc2)C(=O)Nc2ccc([N+](=O)[O-])cc2)CC1 (centres unmarked) [Example 67, 3-{4-[1-(4-tert-Butylcyclohexyl)-3-(4-nitrophenyl)ureidomethyl]benzoylamino}propionic acid] | 891 nM |
| CC(C)(C)C1CCC(N(Cc2ccc(C(=O)NCCC(=O)O)cc2)C(=O)Nc2ccc(-c3ccc(C#N)cc3)cc2)CC1 (centres unmarked) [Example 68, 3-{4-[1-(4-tert-Butylcyclohexyl)-3-(4′-cyanobiphenyl-4-yl)ureidomethyl]benzoylamino}propionic acid] | 552 nM |
| CCCCOc1ccc(NC(=O)N(Cc2ccc(C(=O)NCCC(=O)O)cc2)C2CCC(C(C)(C)C)CC2)cc1 (centres unmarked) [Example 69, 3-{4-[3-(4-Butoxyphenyl)-1-(4-tert-butyl-cyclohexyl)ureidomethyl]benzoylamino}propionic acid] | 90 nM |
| CC(C)(C)C1CCC(N(Cc2ccc(C(=O)NCCC(=O)O)cc2)C(=O)Nc2ccc(C#N)c(C(F)(F)F)c2)CC1 (centres unmarked) [Example 70, 3-{4-[1-(4-tert-Butylcyclohexyl)-3-(4-cyano-3-trifluoromethylphenyl)ureidomethyl]benzoylamino}propionic acid] | 168 nM |
| CC(C)(C)C1CCC(N(Cc2ccc(C(=O)NCCC(=O)O)cc2)C(=O)Nc2ccc(F)c(C(F)(F)F)c2)CC1 (centres unmarked) [Example 71, 3-{4-[1-(4-tert-Butylcyclohexyl)-3-(4-fluoro-3-trifluoromethylphenyl)ureidomethyl]benzoylamino}propionic acid] | 124 nM |
| CC(C)(C)C1CCC(N(Cc2ccc(C(=O)NCCC(=O)O)cc2)C(=O)Nc2ccc(F)c(F)c2)CC1 (centres unmarked) [Example 72, 3-{4-[1-(4-tert-Butylcyclohexyl)-3-(3,4-difluorophenyl)ureidomethyl]benzoylamino}propionic acid] | 673 nM |
| CC(C)OC(=O)c1ccc(NC(=O)N(Cc2ccc(C(=O)NCCC(=O)O)cc2)C2CCC(C(C)(C)C)CC2)cc1 (centres unmarked) [Example 73, 4-{3-(4-tert-Butylcyclohexyl)-3-[4-(2-carboxyethylcarbamoyl)benzyl]ureido}benzoic acid isopropyl ester] | 245 nM |
| CC(C)(C)C1CCC(N(Cc2ccc(C(=O)NCCC(=O)O)cc2)C(=O)Nc2ccc(Cl)c(C(F)(F)F)c2)CC1 (centres unmarked) [Example 74, 3-{4-[1-(4-tert-Butylcyclohexyl)-3-(4-chloro-3-trifluoromethylphenyl)ureidomethyl]benzoylamino}propionic acid] | 61 nM |
| CCCC1CCC(N(Cc2ccc(C(=O)NCCC(=O)O)cc2)C(=O)Nc2ccc(OC(F)(F)F)cc2)CC1 (centres unmarked) [Example 75, 3-{4-[1-(4-Propylcyclohexyl)-3-(4-trifluoromethoxyphenyl)ureidomethyl]benzoylamino}propionic acid] | 177 nM |
| CCC[C@H]1CC[C@H](N(Cc2ccc(C(=O)NCCC(=O)O)cc2)C(=O)Nc2ccc(OC(F)(F)F)cc2)CC1 [Example 76, 3-{4-[1-(4-trans-Propylcyclohexyl)-3-(4-trifluoromethoxyphenyl)ureidomethyl]benzoylamino}propionic acid] | 135 nM |
